Data from US20260242478A1, “ANTIBODIES FOR TARGETING PSMA AND CD28 AND USES THEREOF” (Janux Therapeutics, Inc., priority 2023, published 2026).
Where no end group is shown, it is not given here.

Tested on: anti-CD28 scFv
Assay: Panning ELISA of clonal phage, anti-CD28 scFv, with or without CD28 soluble protein (Peptide-9 library)
Type: binding
Settings: Peptide-9 library, background (no anti-CD28 scFv)
Procedure: Clonal phage were harvested as crude supernatants and screened via standard enzyme linked immunosorbent assays (ELISAs). […] Prior to the addition of clonal phage, wells were incubated with blocking buffer and CD28 soluble protein or blocking buffer alone. Without washing or aspirating, clonal phage supernatants were then added to the wells and incubated for a short time. Wells were then washed followed by detection of bound phage using a horse radish peroxidase conjugated anti-M13 antibody. Clonal phage of interest were then sent for sequence analysis.

Chain of anti-CD28 scFv (as listed by the source): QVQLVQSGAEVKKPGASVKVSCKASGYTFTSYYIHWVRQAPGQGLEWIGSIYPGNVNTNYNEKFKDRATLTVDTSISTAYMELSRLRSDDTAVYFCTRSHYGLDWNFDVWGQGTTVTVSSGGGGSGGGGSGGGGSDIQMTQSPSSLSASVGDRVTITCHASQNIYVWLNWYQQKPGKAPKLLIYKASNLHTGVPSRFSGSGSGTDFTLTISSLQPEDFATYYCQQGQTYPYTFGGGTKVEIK

Going from Phage-118 (MDWCPRHLWDECFF) to Phage-99 (MDWCPRYLWNMCFH), the Background signal rises from 0.074 to 0.114.

First: Phage-415 (MDWCPMYMWHKCFH)
Second: Phage-133 (MDWCPRFLWDECFF)
The Background signal of the first is higher: 0.099 for the first, 0.064 for the second.

First: Phage-450 (EDWCPTDVWPYCFS)
Second: Phage-52 (MDWCPINLWDECFS; not fully specified; cysteine pairing not given here)
The Background signal of the first is higher: 0.100 for the first, 0.062 for the second.

Compared with Phage-134 (MDWCPSYLWHECFA), Phage-411 (MSWCPRFMWHECFN) is lower in Background signal: 0.096 for the first, 0.081 for the second.

Going from Phage-449 (MVDCPLISFDECLA) to Phage-439 (MDWCPRDRWDVCFA), the Background signal falls from 0.246 to 0.073.

First: Phage-409 (LHWCPITMWTYCYY)
Second: Phage-117 (MDWCPRYLWFECFS)
The Background signal of the first is higher: 0.229 for the first, 0.079 for the second.

Compared with Phage-430 (IHLCHWVPWIKCSH), Phage-136 (MHWCPIYLWDECFN) is lower in Background signal: 2.516 for the first, 0.071 for the second.

Compared with Phage-94 (MDWCPRDLWSLCFY), Phage-432 (IDWCPIIQGLPCFA) is lower in Background signal: 0.065 for the first, 0.058 for the second.

Compared with Phage-443 (MDWCPMTRWNDCYF), Phage-140 (MDWCPMDLWDVCFN) is higher in Background signal: 0.081 for the first, 0.090 for the second.

Compared with “Phage-46 (MHWCPIDLWAECYA; not fully specified; cysteine pairing not given here)”, “Phage-50 (MDWCPPYLWNVCFS; not fully specified; cysteine pairing not given here)” is lower in Background signal: 0.082 for the first, 0.063 for the second.

First: Phage-97 (MDWCPKDLWDYCFA)
Second: Phage-424 (ITQCPSTMWNRCSV)
The Background signal of the first is higher: 0.078 for the first, 0.067 for the second.

First: Phage-440 (MDWCPRDRWVDCFN)
Second: Phage-135 (MDWCPKFLWHECFS)
The Background signal of the first is higher: 0.106 for the first, 0.065 for the second.

Compared with Phage-110 (MDWCPRYLWDECFN), Phage-121 (MDWCPRDLWHVCFF) is lower in Background signal: 0.069 for the first, 0.068 for the second.

Same assay, conditions: background (no anti-CD28 scFv)

Going from Phage-329 (MDWCPRALWNVCFA) to “Phage-272 (MVWCMSVGWAVCLN; cysteine pairing not given here; also: large carriers left off)”, the Background signal rises from 0.071 to 0.289.

Going from Phage-379 (MDWCPRNLWAECFS) to Phage-351 (MDWCPMNLWHECFA), the Background signal rises from 0.061 to 0.080.

First: Phage-349 (LDWCPRHLWALCFN)
Second: Phage-341 (MDWCPRHLWDECFN)
The Background signal of the first is lower: 0.073 for the first, 0.084 for the second.

First: Phage-276 (IDWCPKIHWDLCYF; not fully specified; cysteine pairing not given here)
Second: Phage-383 (LAGCQRDLATVCVI)
The Background signal of the first is higher: 0.072 for the first, 0.068 for the second.

Compared with Phage-291 (MDWCPRYLWHVCFY), Phage-335 (MDWCPRFLWDYCFA) is lower in Background signal: 0.227 for the first, 0.146 for the second.

First: Phage-361 (MHWCPRHLWSECFN)
Second: Phage-322 (MDWCPRHLWIECFN)
The Background signal of the first is lower: 0.165 for the first, 0.339 for the second.

Going from Phage-332 (IDWCPRALWDACLA) to Phage-324 (MDWCPRHLWYECFS), the Background signal falls from 0.269 to 0.216.

Compared with Phage-328 (MDWCPRALWDHCFN), Phage-319 (MSWCPRDLWHLCFF) is lower in Background signal: 0.323 for the first, 0.077 for the second.

Compared with Phage-363 (MNWCPMHLWAECFN), Phage-340 (MSWCPIDLWSECFA) is lower in Background signal: 0.087 for the first, 0.072 for the second.

First: Phage-321 (MDWCPRDLWYVCFA)
Second: Phage-320 (MDWCPTYLWNECFN)
The Background signal of the first is lower: 0.095 for the first, 0.120 for the second.

Compared with “Phage-274 (WVSCLRHHWLECFH; not fully specified; cysteine pairing not given here)”, Phage-360 (MDWCPMFLWHECFS) is lower in Background signal: 0.781 for the first, 0.092 for the second.

With Phage-373 (MDWCPRILWSDCFN) the Background signal was 0.082.
